# Experimental data reported in patent publication US9046516B2, “Immunoassay method, reagent kit for detecting alkaline phosphatase, and reagent kit for immunoassay” (SYSMEX CORPORATION, priority 2007, dated 2015).
# System: endogenous ALP
# Test: HBs antigen immunoassay with ALP label: luminescence intensity of samples, reduction of the influence of endogenous ALP
# Assay type: biochemical
# Conditions: particle dispersion with 2 mM levamisole
# Experimental: In this example, the effect of the inhibitor of endogenous ALP contained in the particle dispersion prepared in (4) above on reduction of the influence of endogenous ALP was examined.
# Specifically, the reagents prepared in (1) to (5) above were used and the luminescence intensities of HBs antigen-negative samples were measured. The measurement method is described below.
# First, 25 μL sample was mixed with 30 μL of the HBs antibody reagent and then incubated at 42° C. for about 3 minutes, whereby an HBs antigen in the sample was reacted with the biotinylated HBs antibody in the HBs antibody reagent. Subsequently, 30 μL of the magnetic particle reagent was added to the mixture and then incubated for about 2 minutes, and a complex consisting of the HBs antigen and the biotinylated HBs antibody was immobilized on the ST magnetic particles. […] 50 μL of the particle dispersion was added to the ST magnetic particles from which the wash fluid had been removed, then the ST magnetic particles were dispersed in the particle dispersion, 100 μL of the substrate solution was added thereto, and the luminescence intensity of the sample was measured with LUMI-COUNTER 700 (Microtec Nichion). […]
smiles,measurement,setting,value
"c1ccc([C@H]2CN3CCSC3=N2)cc1 [Levamisole, (−)-2,3,5,6-tetrahydro-6-phenylimidazo[1,2-b]thiazole]","With Levamisole (Luminescence Intensity, Counts)","negative control NC (0.1 M TEA buffer solution containing 5% BSA, pH 7.0)",705 Counts
same,"With Levamisole (Luminescence Intensity, Counts)",positive control PC (HBs antigen-positive serum),258759 Counts
